Laboratory results published in patent US12280026B2, “Use of repirinast in the prophylaxis or treatment of renal fibrosis or kidney disease” (ALGERNON PHARMACEUTICALS INC., priority 2018, dated 2025).
“Also recorded” adds a separate entry of the source.

Tests used:
Type in all cases: in vivo
[1] = Example 1: UUO mice, mean body weight change following surgery; conditions: Example 1, mostly post-surgical day 14, male C57BL/6 mice, PO QD days 1-14, doses of Table 1
Method: (§1) Male 9-12 week old C57BL/6 mice of 23-25 grams body weight were used. All mice were acclimated for a minimum of 5 days prior to the start of the study and housed individually in microisolators throughout the study in a 12:12 light-dark cycle on a standard maintenance mouse chow diet (Harlan Teklad 2018) with food and water given ad libitum. Prior to surgery, all mice were weighed for baseline body weight.
(§2) The UUO surgical intervention was performed according to previously described methods known in the art (Le Meur Y et al., Macrophage accumulation at a site of renal inflammation is dependent on the M-CSF/c-fms pathway, J Leukocyte Biol., 72:530-537; 2002).
(§3) All mice were first anesthetized by intraperitoneal injection with a rodent cocktail (ketamine 10 mg/mL and Xyaline 1 mg/mL) in normal saline (10 μL/g body weight). Pedal reflex and movement of the vibrissae were used to determine the state of unconsciousness. A state of unconsciousness was confirmed after a period of about 5 minutes in all animals. All mice were then shaved on the left side of the abdomen. The shaved area was first swabbed with iodine and then swabbed with alcohol. A vertical incision was made through the skin with a #22 scalpel and the skin was then retracted. A further incision of about 2.5 cm was then made through the peritoneum avoiding any major blood vessels. The peritoneum was then retracted and the left kidney was exposed.
(§4) The left kidney was then brought to the surface by hooking the ureter directly beneath the kidney with sterile forceps and gently manipulating the kidney upward. The ureter was ligated at two points directly below the kidney with 5-0 surgical silk with excess suture cut away and discarded post-ligation. The kidney was then gently placed back to its correct anatomical position and the abdomen was lavaged with 1 mL sterile saline to replenish fluid loss. The peritoneum and then skin were sutured with 5-0 Mersilene, and the incision site was gently wiped with iodine. All mice were then placed individually in clean cages that were set on top of a thermal blanket until recovery at about 30-60 minutes later. In some examples, sham surgery was performed as a control by following all steps of the UUO surgical intervention procedure except ligation.
(§5) Following surgery, the mice were divided into 14 individual study groups of 8 mice each and, following post-surgical recovery, administered a once-daily oral treatment for 14 days. The mice in 12 of the 14 study groups (hereafter known as “treatment groups”) had all received the UUO surgical ligation and were treated individually with a distinct pharmacologic compound as set out in Table 1. The mice in 2 of the 14 study groups were treated individually with a pharmaceutically acceptable vehicle with no active ingredient. The pharmaceutically acceptable vehicle in all groups was 0.5% carboxymethyl cellulose (CMC). All mice were sacrificed with CO2 on post-surgical day 15.
(§6) The dose selected for the animal studies was determined by taking the maximum known human daily dose, dividing by the average weight of an adult (˜60-70 kg) to get a human mg/kg dose. […]
Body weight: The body weights were measured on days 1, 2, 5, 8, 10 and 14 using a laboratory balance.
Body weights were measured on post-surgical days 1, 2, 5, 8, 10 and 14 as previously described. The mean body weight change of each study group was calculated using the body weight average of all mice in each study group.

[2] = tested on: C57BL/6 mice with UUO surgical ligation; test: Example 1: UUO mice, kidney weight evaluation (ligated vs non-ligated kidney); conditions: doses of Table 1
Method: as §1
The UUO surgical intervention was performed according to previously described methods known in the art (Le Meur Y et al., Macrophage accumulation at a site of renal inflammation is dependent on the M-CSF/c-fms pathway, J Leukocyte Biol., 72:530-537; 2002). […]
as §6
Kidney weight: The UUO was then examined in situ to ensure that the surgical ligation ties remained patent. […] Weights of both kidneys were measured using a laboratory balance.
Kidney Weight Evaluation: Kidney weight indicating, which indicates functional and pathological changes in the kidney, was evaluated by measuring the weight of both the ligated (UUO) and non-ligated kidneys as previously described. […]

[3] = tested on: C57BL/6 mice with UUO surgical ligation; test: Example 1: UUO mice, renal fibrosis evaluation (Sirius Red histology score); conditions: Bemithyl 200, Emoxypine 160, Suplatast Tosylate 60, Udenafil 40, Telmisartan 5 mg/kg PO QD, 4-methylbenzenesulfonate
Method: as §1, §2, §3, §4, §5, §6
Histopathology: Formalin-fixed kidney cross-section samples were subjected histopathological scoring with Sirius Red staining, and imaged at a magnification of ×20, using standard techniques. All three sections were stained and evaluated. […] The presence of interstitial damage and severity score was assessed according to the following criteria: 0=normal, 1=light, 2=moderate, 3=severe. […]

[4] = tested on: C57BL/6 mice with UUO surgical ligation; test: Example 1: UUO mice, renal function evaluation (plasma BUN, creatinine); conditions: Example 1
Method: as §1, §2, §3, §4, §5
The dose selected for the animal studies was determined by taking the maximum known human daily dose, dividing by the average weight of an adult (˜60-70 kg) to get a human mg/kg dose. Then that number was multiplied by 12 to convert to a mouse dose based on conventional dosing tables. See Nair and Jacob, J Basic Clin Pharm March 2016-May 2016, 7(2):27-31.
Serum collection: A blood sample was then collected from all mice and plasma analyzed for urea nitrogen and creatinine. Plasma was stored at −80° C. for possible future analysis.
Renal Function Evaluation: Renal function and disease progression was evaluated by BUN (blood urea nitrogen) as previously described. The BUN of each study group consisted of the BUN average of all mice in each study group.

Structure (SMILES) | Mean body weight change, comparison with control groups, in words [1] | Ligated kidney weight in comparison to control groups, in words [2] | Kidney fibrosis / Histology Score, significance and comparison in words [3] | Reduction in BUN compared to vehicle, significance in words ([4]; Bonferroni post-test, Suplatast Tosylate 60, Iguratimod 15, Lobenzarit 48, Actarit 60, Udenafil 40 mg/kg PO QD) | BUN in comparison to control groups, in words ([4]; UUO, male C57BL/6 mice, PO QD days 1-14, doses of Table 1)
CCn1c(=O)c2c(nc(/C=C/c3ccc(OC)c(OC)c3)n2C)n(CC)c1=O [Istradefylline, 8-[(E)-2-(3,4-dimethoxyphenyl)vinyl]-1,3-diethyl-7-methyl-3,7-dihydro-1H-purine-2,6-dione] | greater decrease in body weight | increased in comparison to the remaining 13 study groups | – | – | –
CCOCC(O)COc1ccc(NC(=O)CC[S+](C)C)cc1.Cc1ccc(S(=O)(=O)[O-])cc1 (stereo not drawn) [Suplatast Tosylate, (3-{[4-(3-ethoxy-2-hydroxypropoxy)phenyl]amino}-3-oxopropyl)(dimethyl)sulfonium 4-methylbenzenesulfonate] | comparable to that of the surgery vehicle control group | – | the same as the positive control treatment group; also recorded: significant reductions in kidney fibrosis; also recorded: significant reduction in fibrosis compared to vehicle | significant reductions in BUN | decreased in comparison to the sham surgery control group
